The source made the active and inactive calls.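 How the source made its calls: active means inhibition over 29.93%, a cutoff 3 SD above the screen mean, later confirmed by dose response; inconclusive means over the cutoff but never tested in dose response; inactive means the rest.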

Assay [1] in a line: PhoP promoter GFP reporter reduction in Typhimurium – purified and synthesized compounds, set 2, PhoP regulon inhibitor project, dose response (AID 2831). The following applies: S. Typhimurium PhoP-regulated promoter-GFP reporter, fluorescence, 4 h; at 150 µM (top of the series).
Assay [2] concerns S. Typhimurium PhoP-regulated promoter-GFP reporter, fluorescence, 4 h. The description is as above.

What is called inhibition is the drop in the measured response relative to a control, in per cent. As for `O=C(Nc1ccc(Cl)cc1)N1CCCN(Cc2ccc(F)cc2)C1`, the inhibition in assay [1] was -86.3% (inactive).
The IC50 is the concentration at which inhibition is half-maximal. For the compound `CCn1cc(C(=O)O)c(=O)c2cc(F)c(N3CCN(C(=S)NC(=O)c4ccccc4F)CC3)cc21`, the IC50 in assay [2] is 106 µM.
Still for that read-out and setting: the value for `CCn1cc(C(=O)O)c(=O)c2cc(F)c(N3CCN(C(=S)Nc4ccccc4C)CC3)cc21` was 27.9 µM.
Regarding `Cc1cccc(NC(=S)NCc2ccc(Cl)cc2)c1`, in assay [1], the inhibition was 18.9% (inactive).
In the case of `S=C(NCc1ccccc1Cl)Nc1ccncc1`, the IC50 in assay [2] is 146 µM.
In the case of `O=C(NCc1ccccc1)N1CCCN(Cc2ccccc2F)C1`, the inhibition in assay [1] is -78.3% (inactive).
Same read-out and setting: the value for `O=C1C2=C(Nc3ccccc3SC2c2ccccc2C(F)(F)F)c2ccccc21` (stereo unspecified) was -23.8% (inactive).
With `CN(C)CCCN(C(=O)CCc1ccccc1)c1nc2ccc(Cl)cc2s1`, in assay [2], the IC50 is less than 0.15 µM.
In the case of `O=C1C2=C(Nc3ccccc3SC2c2ccc(I)cc2)c2ccccc21` (stereo unspecified), the IC50 in assay [2] was 133 µM.
For `COc1ccc(NC(=S)NCc2ccc(Cl)cc2)cc1`, the inhibition in assay [1] is 1.77% (inactive).
On to `CCn1cc(C(=O)O)c(=O)c2cc(F)c(N3CCN(C(=S)NC)CC3)cc21`, for which the inhibition in assay [1] was -22.9% (inactive).
In the case of `CCn1cc(C(=O)O)c(=O)c2cc(F)c(N3CCN(C(=S)Nc4ccccc4Cl)CC3)cc21`, the IC50 in assay [2] is 46.5 µM.
In the case of `O=C(Nc1ccc(Br)cc1)N1CCCN(Cc2ccccc2F)C1`, in assay [1], the inhibition was -62.1% (inactive).
On the same count and under the same terms, the value for `S=C(NCc1ccc(Cl)cc1)Nc1ccc(Br)cc1` was -3.88% (inactive).
In the case of `O=C(Nc1cccnc1)c1cc(Br)c(Br)s1`, the IC50 in assay [2] was less than 0.15 µM.
As to `Fc1ccccc1NC(=S)NCc1ccc(Cl)cc1`, the inhibition in assay [1] was -10.3% (inactive).
With `C1=C(CCNc2ncnc3c2[nH]c2ccccc23)CCCC1`, the 50% inhibitory concentration (IC50) in assay [2] is less than 0.15 µM.
In the case of `O=c1c2ccccc2[nH]c2ccc(F)cc12`, the half-inhibitory concentration (IC50) in assay [2] was less than 0.15 µM.
With `COc1ccccc1Nc1nc(NCc2ccco2)c2ccccc2n1`, the IC50 in assay [2] was less than 0.15 µM.
In the case of `COc1cccc(C2Sc3ccccc3NC3=C2C(=O)c2ccccc23)c1` (stereo unspecified), the half-inhibitory concentration (IC50) in assay [2] is 76.8 µM.
With `CCOc1ccc(NC(=S)N2CCN(c3cc4c(cc3F)c(=O)c(C(=O)O)cn4CC)CC2)cc1`, in assay [2], the IC50 is 2.03 µM.
Same read-out and setting: the value for `O=C1C2=C(Nc3ccccc3SC2c2ccccc2Br)c2ccccc21` (stereo unspecified) was 88.3 µM; that for `N#C/C(=C\c1ccc[nH]1)C(=O)NC1CC1` was less than 0.15 µM.
Turning to `CCn1cc(C(=O)O)c(=O)c2cc(F)c(N3CCN(C(=S)Nc4ccccc4C(F)(F)F)CC3)cc21`, the half-maximal inhibitory concentration (IC50) in assay [2] is 3.79 µM.
On to `S=C(NCc1ccc(Cl)cc1)Nc1ccncc1`, for which, in assay [2], the 50% inhibitory concentration (IC50) was 76.6 µM.
Same read-out and setting: the value for `Cc1ccc(Nc2cc(C)c3c(O)cccc3n2)cc1C` was 112 µM.
Regarding `O=C1c2ccccc2C2=Nc3ccccc3SC(c3ccccc3F)C12` (stereo unspecified), in assay [2], the IC50 was less than 0.15 µM.
Consider `S=C(NCc1ccc(Cl)cc1)Nc1cccc(Cl)c1`, for which the IC50 in assay [2] was 58.8 µM.
`CN1CCc2nc(SCC(=O)Nc3cccc(F)c3)c(C#N)c(-c3cccs3)c2C1`: in assay [2], the IC50 is less than 0.15 µM.
As to `Cc1ccc(CN2CCCN(C(=O)Nc3ccc(Cl)cc3)C2)cc1`, in assay [1], the inhibition is 17.3% (inactive).
The same measure, in the same setting: the value for `COc1cccc(NC(=S)NCc2ccc(Cl)cc2)c1` was 2.44% (inactive).
The same measure, in the same setting: the value for `O=C1C2=C(Nc3ccccc3SC2c2ccc(C(F)(F)F)cc2)c2ccccc21` (stereo unspecified) was -14.5% (inactive).
On to `COc1ccc(NC(=O)c2cc(Br)c(Br)s2)cn1`, for which, in assay [2], the concentration for half-maximal inhibition (IC50) is less than 0.15 µM.
With `O=C(O)c1cn(-c2ccc(F)cc2)c2cc(Cl)c(F)cc2c1=O`, the IC50 in assay [2] is less than 0.15 µM.
Consider `CCn1cc(C(=O)O)c(=O)c2cc(F)c(N3CCN(C(=S)NCc4ccccc4)CC3)cc21`, for which the inhibition in assay [1] was -0.39% (inactive).
In the case of `O=C(Nc1ccccc1Cl)N1CCCN(Cc2ccccc2F)C1`, the inhibition in assay [1] is -64.3% (inactive).
`Cc1ccc(NC(=S)NCc2ccc(Cl)cc2)cc1`: the inhibition in assay [1] was 26.1% (inactive).
Take `COc1c(N2CCN(C(=S)NCc3ccccc3)C(C)C2)c(F)cc2c(=O)c(C(=O)O)cn(C3CC3)c12` (stereo unspecified): the IC50 in assay [2] was 85.5 µM.
Consider `CCCCn1c(NS(=O)(=O)c2ccc(C)cc2)c(S(=O)(=O)c2ccccc2)c2nc3ccccc3nc21`, for which the IC50 in assay [2] is less than 0.15 µM.
Turning to `CCn1cc(C(=O)O)c(=O)c2cc(F)c(N3CCN(C(=S)Nc4ccc(Cl)cc4)CC3)cc21`, the inhibition in assay [1] is -15% (inactive).
On to `CCCCn1c(NS(=O)(=O)c2ccccc2)c(S(=O)(=O)c2ccc(C)cc2)c2nc3ccccc3nc21`, for which the IC50 in assay [2] is less than 0.15 µM.
On to `S=C(NCc1ccc(Cl)cc1)Nc1cccnc1`, for which the inhibition in assay [1] is -84.8% (inactive).
Same read-out and setting: the value for `O=C(Nc1ccccc1)N1CCCN(Cc2ccc(F)cc2)C1` was -3.43% (inactive); that for `O=C1C2=C(Nc3ccccc3SC2c2ccsc2)c2ccccc21` (stereo unspecified) was 7.75% (inactive).
`CCCCCNC(=O)c1cn(CC)c2cc(N3CCN(C)CC3)c(F)cc2c1=O`: the 50% inhibitory concentration (IC50) in assay [2] is less than 0.15 µM.
On to `O=C(Nc1ccccc1)N1CCCN(Cc2ccccc2F)C1`, for which the inhibition in assay [1] is -140% (inactive).
Regarding `O=C1C2=C(Nc3ccccc3SC2c2ccccc2Cl)c2ccccc21` (stereo unspecified), the half-maximal inhibitory concentration (IC50) in assay [2] was 141 µM.
On the same count and under the same terms, the value for `O=S(=O)(Nc1c(S(=O)(=O)c2ccccc2)c2nc3ccccc3nc2n1C1CCCCC1)c1ccccc1` was less than 0.15 µM.
On to `COc1ccccc1NC(=O)N1CCCN(Cc2ccccc2F)C1`, for which, in assay [1], the inhibition was 13.8% (inactive).
With `CCn1cc(C(=O)O)c(=O)c2cc(F)c(N3CCN(C(=S)NC(=O)c4ccccc4Cl)CC3)cc21`, the concentration for half-maximal inhibition (IC50) in assay [2] was 42.6 µM.
As to `O=[N+]([O-])c1ccc(CNC2CCCc3ccccc32)cc1` (stereo unspecified), the IC50 in assay [2] was 69.1 µM.

Values taken from PubChem BioAssay AID2831 (Southern Research Specialized Biocontainment Screening …, 2010).
